The source of these data is patent US9708311B2, “Benzimidazole derivatives as EP4 antagonists” (BAYER PHARMA AKTIENGESELLSCHAFT, priority 2012, dated 2017).

One may read the IC50 as the concentration that gives 50% inhibition.

For the test, the target named is human EP4 receptor (Homo sapiens (Human), UniProt P35408). Nature of the test: Test for antagonism of the human EP4 receptor signal (cAMP HTRF). To be noted: cells expressing hEP4, PGE2 at EC80 (0.4 nM), cAMP TR-FRET; read-out: Antagonism hEP4 IC50. Type of test: cell-based. Put shortly: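 Antagonism of PGE2-stimulated cAMP formation in hEP4-R cells with IBMX present. After lysis, cAMP measured by competitive TR-FRET (Eu cryptate anti-cAMP antibody vs cAMP-d2), 20 min at room temperature. Read-out is the 665/620 nm emission ratio; antagonism appears as restored FRET signal.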
Chain of human EP4 receptor (P35408 whole entry): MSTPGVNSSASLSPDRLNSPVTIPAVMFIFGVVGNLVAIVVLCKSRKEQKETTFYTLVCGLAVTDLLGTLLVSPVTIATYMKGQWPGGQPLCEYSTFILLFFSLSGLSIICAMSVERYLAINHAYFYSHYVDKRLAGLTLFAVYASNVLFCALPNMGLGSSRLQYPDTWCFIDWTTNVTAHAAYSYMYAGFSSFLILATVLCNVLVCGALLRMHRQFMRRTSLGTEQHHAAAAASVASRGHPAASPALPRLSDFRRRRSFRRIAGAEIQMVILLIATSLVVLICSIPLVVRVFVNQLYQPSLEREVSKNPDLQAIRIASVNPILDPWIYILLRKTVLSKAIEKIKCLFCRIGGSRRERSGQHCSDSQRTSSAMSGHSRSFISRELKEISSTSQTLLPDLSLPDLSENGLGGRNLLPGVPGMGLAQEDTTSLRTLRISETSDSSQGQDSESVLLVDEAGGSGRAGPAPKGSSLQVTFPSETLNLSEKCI
For orientation: In TR-FRET formats the signal depends on donor and acceptor labels being close together.
As for `CCn1c2ccccc2c2cc(-c3nc4cc(C(=O)NS(=O)(=O)C5(C)CC5)ccc4n3CCOC)ccc21` [Example 40, 2-(9-Ethyl-9H-carbazol-3-yl)-1-(2-methoxyethyl)-N-[(1-methylcyclopropyl)sulphonyl]-1H-benzimidazole-5-carboxamide], the 50% inhibitory concentration (IC50) turned out to be 78.3 nM.

`CCn1c2ccccc2c2cc(-c3nc4cc(C(=O)OC)ccc4n3CC3CC3)ccc21` [Example 5, Methyl 1-(cyclopropylmethyl)-2-(9-ethyl-9H-carbazol-3-yl)-1H-benzimidazole-5-carboxylate]: the IC50 was 404 nM.

On to `C=CCn1c2ccccc2c2cc(-c3nc4cc(C(=O)O)ccc4n3CC3CC3)ccc21` [Example 33, 2-(9-Allyl-9H-carbazol-3-yl)-1-(cyclopropylmethyl)-1H-benzimidazole-5-carboxylic acid], for which the half-maximal inhibitory concentration (IC50) came to 28.7 nM.

`CCn1c2ccccc2c2cc(-c3nc4cc(-n5ccnn5)ccc4n3C)ccc21` [Example 128, 9-Ethyl-3-[1-methyl-5-(1H-1,2,3-triazol-1-yl)-1H-benzimidazole-2-yl]-9H-carbazole]: the IC50 stood at 111 nM.

`CCn1c2ccccc2c2cc(-c3nc4c(F)c(C(=O)O)ccc4n3CCOC)ccc21` [Example 114, 2-(9-Ethyl-9H-carbazol-3-yl)-4-fluoro-1-(2-methoxyethyl)-1H-benzimidazole-5-carboxylic acid]: the IC50 amounted to 6.42 nM.

Turning to `CCn1c2ccccc2c2cc(-c3nc4cc(C(=O)O)ccc4n3CCN3CCCC3)ccc21` [Example 38, 2-(9-Ethyl-9H-carbazol-3-yl)-1-[2-(pyrrolidin-1-yl)ethyl]-1H-benzimidazole-5-carboxylic acid], the half-inhibitory concentration (IC50) was 742 nM.

`CCn1c2ccccc2c2cc(-c3nc4c(C)c(C(=O)O)ccc4n3CCOC)ccc21` [Example 105, 2-(9-Ethyl-9H-carbazol-3-yl)-1-(2-methoxyethyl)-4-methyl-1H-benzimidazole-5-carboxylic acid]: the IC50 was determined as 64.3 nM.

With `CCOC(=O)c1ccc2c(c1)nc(-c1ccc3c(c1)c1ccccc1n3CC)n2CC1COC1` [Example 122, Ethyl 2-(9-ethyl-9H-carbazol-3-yl)-1-(oxetan-3-ylmethyl)-1H-benzimidazole-5-carboxylate], the half-inhibitory concentration (IC50) turned out to be 464 nM.

With `CCn1c2ccccc2c2cc(-c3nc4cc(C(=O)NS(=O)(=O)CCc5ccccc5C)ccc4n3CCOC)ccc21` [Example 57, 2-(9-Ethyl-9H-carbazol-3-yl)-1-(2-methoxyethyl)-N-{[2-(2-methylphenyl)ethyl]sulphonyl}-1H-benzimidazole-5-carboxamide], the IC50 was determined as 239 nM.

With `CCn1c2ccc(Cl)cc2c2cc(-c3nc4c(C)c(C(=O)O)ccc4n3CCOC)ccc21` [Example 142, 2-(6-Chloro-9-ethyl-9H-carbazol-3-yl)-1-(2-methoxyethyl)-4-methyl-1H-benzimidazole-5-carboxylic acid], the IC50 was 4.16 nM.

In the case of `CCn1c2ccccc2c2cc(-c3nc4cc(C(=O)NS(=O)(=O)CCc5cccc(Cl)c5)ccc4n3CCOC)ccc21` [Example 56, N-{[2-(3-Chlorophenyl)ethyl]sulphonyl}-2-(9-ethyl-9H-carbazol-3-yl)-1-(2-methoxyethyl)-1H-benzimidazole-5-carboxamide], the IC50 stood at 238 nM.

`CCn1c2ccccc2c2cc(-c3nc4cc(C(=O)NS(=O)(=O)CCOC)ccc4n3CCOC)ccc21` [Example 59, 2-(9-Ethyl-9H-carbazol-3-yl)-1-(2-methoxyethyl)-N-[(2-methoxyethyl)sulphonyl]-1H-benzimidazole-5-carboxamide]: the IC50 was 16.9 nM.

As for `CCn1c2ccccc2c2cc(-c3nc4cc(C#N)ccc4n3CCOC)ccc21` [Example 44, 2-(9-Ethyl-9H-carbazol-3-yl)-1-(2-methoxyethyl)-1H-benzimidazole-5-carbonitrile], the IC50 came out at 421 nM.

As for `CCCn1c2ccccc2c2cc(-c3nc4cc(C(=O)O)ccc4n3CC3CC3)ccc21` [Example 120, 1-(Cyclopropylmethyl)-2-(9-propyl-9H-carbazol-3-yl)-1H-benzimidazole-5-carboxylic acid], the concentration for half-maximal inhibition (IC50) was determined as 63 nM.

As for `C=CCn1c(-c2ccc3c(c2)c2ccccc2n3CC)nc2cc(C(=O)NC)ccc21` [Example 88, 1-Allyl-2-(9-ethyl-9H-carbazol-3-yl)-N-methyl-1H-benzimidazole-5-carboxamide], the IC50 was 2100 nM.

As to `C=CCn1c2ccccc2c2cc(-c3nc4cc(C(=O)O)ccc4n3CCOC)ccc21` [Example 96, 2-(9-Allyl-9H-carbazol-3-yl)-1-(2-methoxyethyl)-1H-benzimidazole-5-carboxylic acid], the concentration for half-maximal inhibition (IC50) stood at 16.5 nM.

With `CCn1c2ccccc2c2cc(-c3nc4cc(C(=O)NS(=O)(=O)Cc5ccc(C(F)(F)F)cc5)ccc4n3CCOC)ccc21` [Example 62, 2-(9-Ethyl-9H-carbazol-3-yl)-1-(2-methoxyethyl)-N-{[4-(trifluoromethyl)benzyl]sulphonyl}-1H-benzimidazole-5-carboxamide], the IC50 was 186 nM.

On to `CCn1c2ccc(-c3nc4cc(C(=O)O)ccc4n3CCOC)cc2c2cccc(F)c21` [Example 12, 2-(9-Ethyl-8-fluoro-9H-carbazol-3-yl)-1-(2-methoxyethyl)-1H-benzimidazole-5-carboxylic acid], for which the IC50 is 10.2 nM.

As to `CCn1c2ccccc2c2cc(-c3nc4cc(C(=O)NS(=O)(=O)Cc5ccccc5)ccc4n3CCOC)ccc21` [Example 55, N-(Benzylsulphonyl)-2-(9-ethyl-9H-carbazol-3-yl)-1-(2-methoxyethyl)-1H-benzimidazole-5-carboxamide], the concentration for half-maximal inhibition (IC50) was 117 nM.

As for `CCn1c2ccccc2c2cc(-c3nc4c(F)c(C(=O)O)ccc4n3CC3CC3)ccc21` [Example 115, 1-(Cyclopropylmethyl)-2-(9-ethyl-9H-carbazol-3-yl)-4-fluoro-1H-benzimidazole-5-carboxylic acid], the IC50 was 11.6 nM.

Regarding `CCn1c2ccccc2c2cc(-c3nc4cc(C(=O)NC)ccc4n3CCOC)ccc21` [Example 41, 2-(9-Ethyl-9H-carbazol-3-yl)-1-(2-methoxyethyl)-N-methyl-1H-benzimidazole-5-carboxamide], the half-inhibitory concentration (IC50) worked out at 96.7 nM.

Take `CCn1c2ccccc2c2cc(-c3nc4cc(C(=O)O)ccc4n3CCCOC)ccc21` [Example 100, 2-(9-Ethyl-9H-carbazol-3-yl)-1-(3-methoxypropyl)-1H-benzimidazole-5-carboxylic acid]: the IC50 is 158 nM.

Turning to `CCn1c2ccccc2c2cc(-c3nc4cc(C(=O)N(C)S(C)(=O)=O)ccc4n3CCOC)ccc21` [Example 84, 2-(9-Ethyl-9H-carbazol-3-yl)-1-(2-methoxyethyl)-N-methyl-N-(methylsulphonyl)-1H-benzimidazole-5-carboxamide], the IC50 amounted to 143 nM.

With `CCn1c2ccccc2c2cc(-c3nc4cc(C(=O)O)ccc4n3C(C)C)ccc21` [Example 93, 2-(9-Ethyl-9H-carbazol-3-yl)-1-isopropyl-1H-benzimidazole-5-carboxylic acid], the IC50 was 733 nM.

In the case of `CCn1c2ccccc2c2cc(-c3nc4cc(C(=O)NS(=O)(=O)c5ccccc5OC)ccc4n3CCOC)ccc21` [Example 52, 2-(9-Ethyl-9H-carbazol-3-yl)-1-(2-methoxyethyl)-N-[(2-methoxyphenyl)sulphonyl]-1H-benzimidazole-5-carboxamide], the IC50 is 35.9 nM.

Take `CCn1c2ccccc2c2cc(-c3nc4cc(C(=O)NS(=O)(=O)Cc5c(C)cccc5Cl)ccc4n3CCOC)ccc21` [Example 67, N-[(2-Chloro-6-methylbenzyl)sulphonyl]-2-(9-ethyl-9H-carbazol-3-yl)-1-(2-methoxy-ethyl)-1H-benzimidazole-5-carboxamide]: the IC50 was 36.9 nM.

`CCn1c2ccc(-c3nc4cc(C(=O)O)ccc4n3CCOC)cc2c2c(F)cccc21` [Example 11, 2-(9-Ethyl-5-fluoro-9H-carbazol-3-yl)-1-(2-methoxyethyl)-1H-benzimidazole-5-carboxylic acid]: the IC50 was determined as 6.36 nM.

With `CCn1c2ccc(C)cc2c2cc(-c3nc4c(C)c(C(=O)O)ccc4n3CCOC)ccc21` [Example 141, 2-(9-Ethyl-6-methyl-9H-carbazol-3-yl)-1-(2-methoxyethyl)-4-methyl-1H-benzimidazole-5-carboxylic acid], the IC50 came to 15.3 nM.

`COCCn1c2ccccc2c2cc(-c3nc4cc(C(=O)O)ccc4n3CC3CC3)ccc21` [Example 13, 1-(Cyclopropylmethyl)-2-[9-(2-methoxyethyl)-9H-carbazol-3-yl]-1H-benzimidazole-5-carboxylic acid]: the IC50 was 18 nM.

As to `CCn1c2ccccc2c2cc(-c3nc4cc(C(=O)O)ccc4n3C[C@@H](O)COC)ccc21` [Example 134, 2-(9-Ethyl-9H-carbazol-3-yl)-1-[(2R)-2-hydroxy-3-methoxypropyl]-1H-benzimidazole-5-carboxylic acid], the IC50 is 136 nM.

Turning to `CCn1c2ccccc2c2cc(-c3nc4cc(C(=O)O)ccc4n3CC3CC3)cnc21` [Example 14, 1-(Cyclopropylmethyl)-2-(9-ethyl-9H-pyrido[2,3-b]indol-3-yl)-1H-benzimidazole-5-carboxylic acid], the IC50 was 33.4 nM.

Take `O=C(O)c1ccc2c(c1)nc(-c1ccc3c(c1)c1ccccc1n3CC1CCC1)n2CC1CC1` [Example 125, 2-[9-(Cyclobutylmethyl)-9H-carbazol-3-yl]-1-(cyclopropylmethyl)-1H-benzimidazole-5-carboxylic acid]: the IC50 turned out to be 257 nM.

For the compound `CCn1c2ccccc2c2cc(-c3nc4c(C)c(C(=O)O)ccc4n3CC3CC3)cnc21` [Example 107, 1-(Cyclopropylmethyl)-2-(9-ethyl-9H-pyrido[2,3-b]indol-3-yl)-4-methyl-1H-benzimidazole-5-carboxylic acid], the IC50 worked out at 433 nM.

Take `CCn1c2ccccc2c2cc(-c3nc4cc(C(=O)N5CCC5)ccc4n3CCOC)ccc21` [Example 30, Azetidin-1-yl[2-(9-ethyl-9H-carbazol-3-yl)-1-(2-methoxyethyl)-1H-benzimidazol-5-yl]methanone]: the IC50 is 30.1 nM.
